In ChEMBL document CHEMBL1136234, “Cyclohexanedione herbicides are inhibitors of rat heart acetyl-CoA carboxylase” (Bioorg Med Chem Lett, 2003) one finds IC50 data, which are given here for six molecules.

The first test deals with T1, Acetyl-CoA carboxylase 1 (Rattus norvegicus, UniProt P11497). Nature of the test: Inhibitory concentration against rat heart ACC by the carboxylation of acetyl-CoA with [14C]-HCO3- to form [14C]-malonyl CoA; 18-40 uM.
As a reminder, the IC50 is the concentration needed to halve the response being measured. The low end stands for higher potency, the high end for lower potency. On to `CCC/C(=N\OCC)C1=C(O)CC(C2CCCSC2)CC1=O` (stereo unspecified), for which the IC50 worked out at 40 µM. In other words, the double-digit micromolar range. Same read-out and setting: then `CC/C(=N\OC/C=C/Cl)C1=C(O)CC(C2CCOCC2)CC1=O` (stereo unspecified) [TEPRALOXYDIM], with 40 µM. In the case of `CCO/N=C(\CC)C1=C(O)CC(c2c(C)cc(C)cc2C)CC1=O` (stereo unspecified) [TRALKOXYDIM], the IC50 was 40 µM.

For `CCSC(C)CC1CC(=O)C(/C(CC)=N/OC/C=C/Cl)=C(O)C1` (stereo unspecified) [CLETHODIM], 40 µM corresponded to half-maximal inhibition (IC50).

In turn, `CCC/C(=N\OCC)C1=C(O)CC(CC(C)SCC)CC1=O` (stereo unspecified) [SETHOXYDIM] displayed an IC50 of 40 µM. This counts as double-digit micromolar.

The next test concerns the target T1, Acetyl-CoA carboxylase 1. Nature of the test: Inhibitory concentration against rat heart ACC by the carboxylation of acetyl-CoA with [14C]HCO3- to form [14C]-malonyl CoA.
Consider `C=CCO/N=C(\CCC)C1=C(O)C(C(=O)OC)C(C)(C)CC1=O` (stereo unspecified) [ALLOXYDIM], for which the IC50 was more than 100 µM.
